Data published in patent US11485792B2, “Antibodies, uses thereof and conjugates thereof” (Polytherics Limited, priority 2016, dated 2022).
pIC50: −log10 of the molar value. Read-outs that look alike come from different tables or passages of the source. Where a SMILES comes first, the peptide text is derived from it. [ ]: non-standard residue; d: D form. The star is where a group is joined. Dolaproine = CO[C@@H]([C@@H]1CCCN1)[C@@H](C)C(=O)O; Dil = CC[C@H](C)[C@H](NC)[C@@H](CC(=O)O)OC; X1 = C[C@@H](N*)[C@@H](O)c1ccccc1; NMeV = CN[C@H](C(=O)O)C(C)C

Assays:
LNCaP cells = format: cell-based
Source text: (§1) The protocol describes cell seeding, drug treatment and determination of the cell viability in reference to untreated cells based on ATP synthesis, which is directly related to the number of cells present in the well.

C4-2 cells = experiment: In vitro cell viability assay (CellTiter Glo), C4-2; format: cell-based, human; conditions: Example 16; PSMA-positive C4-2, 96 h
Source text: as §1

PC-3 cells = experiment: In vitro cell viability assay (CellTiter Glo), PC-3 (PSMA-negative control); format: cell-based; conditions: Example 16; PSMA-negative PC-3 (negative control), 96 h
Source text: Loss of tumour cell viability following treatment with cytotoxic drugs or ADCs in vitro can be measured by growing cell lines in the presence of increasing concentrations of drugs or ADCs and quantifying the loss of proliferation or metabolic activity using CellTiter Glo® Luminescence reagent (Promega Corp. Technical Bulletin TB288; Lewis Phillips G. D, Cancer Res 2008; 68:9280-9290). The protocol describes cell seeding, drug treatment and determination of the cell viability in reference to untreated cells based on ATP synthesis, which is directly related to the number of cells present in the well.
PSMA-positive LNCaP (clone FGC) and C4-2 cells, as well as PSMA-negative PC-3 cells were detached with TrypLE and resuspended in complete medium. Cells were counted using disposable Neubauer counting chambers and cell density adjusted to 10×10^4 cells/mL for LNCaP, 2×10^4 cells/mL for C4-2 and 1×10^4 cells/mL for PC-3 respectively. […]
The cell viability assay was carried out using the Cell-Titer Glo® Luminescence reagent, as described by the manufacturer's instructions, (Promega Corp. Technical Bulletin TB288; Lewis Phillips G. D, Cancer Res 2008; 68:9280-9290). Luminescence was recorded using a plate reader (e.g. Molecular Devices Spectramax M3 plate reader), and data subsequently analysed using a four parameter non-linear regression model. […]

[1] = Heat stress test with SEC analysis of aggregation; format: physicochemical
Description: Antibody samples (0.5 mg/mL in PBS) were incubated at 75° C. for 30 min followed by incubation in an ice-bath for 5 min prior to being analysed for their extent of aggregation. Analysis of antibody solutions was carried out by Size Exclusion Chromatography (SEC) and by turbidity measurements.
SEC was performed using a TOSOH Bioscience TSK gel Super SW 3000 column. UV absorbance at 280 nm was monitored during an isocratic elution with a 0.2 M Potassium phosphate buffer, pH 6.8 (0.2 M potassium chloride and 15% isopropanol). The elution times and number of peaks indicate whether the sample contains aggregated, degraded or native antibody. The % area under the curve (Abs280) was used to determine the quantity of each species present in the SEC analysis.

[2] = post stress test: 0.5 mg/mL in PBS, 75° C. for 30 min, then ice-bath 5 min, SEC

Question: With `COc1cc2cc(c1Cl)N(C)C(=O)C[C@H](OC(=O)[C@H](C)N(C)C(=O)CCCCCN)[C@]1(C)O[C@H]1[C@H](C)[C@@H]1C[C@@](O)(NC(=O)O1)[C@H](OC)/C=C/C=C(\C)C2` [AHX-DM1] as the molecule, how does the pIC50 (LNCaP cells; Example 16, PSMA-positive LNCaP, 96 h) read?
Answer: The pIC50 was 6.47.

Question: What about the pIC50 (C4-2 cells) of the same molecule?
Answer: Its pIC50 is 7.24.

Question: And the pIC50 (PC-3 cells)?
Answer: The pIC50 was under 6.00.

Question: Which results are given for `CC[C@H](C)[C@@H]([C@@H](CC(=O)N1CCC[C@H]1[C@H](OC)[C@@H](C)C(=O)N[C@H](C)[C@@H](O)c1ccccc1)OC)N(C)C(=O)[C@@H](NC(=O)[C@@H](NC)C(C)C)C(C)C` [MMAE] (H-[NMeV]V[Dil][Dolaproine]-X1)?
Answer: pIC50 (LNCaP cells; Example 14, LNCaP, 96 h incubation): 9.09; pIC50 (C4-2 cells): 9.55; pIC50 (PC-3 cells): 8.09

Question: What does the source list for “AB-22: de-immunised J591 anti-PSMA antibody, SEQ ID No 25 and 26; prior art comparator”?
Answer: Ab in aggregated form (%) [1, 2]: 100%; Ab in native conformation (%) [1, 2]: 0%; stability in heat stress SEC analysis (in words) ([1]; propensity to aggregate upon heating and cooling): less stable than AB-03
